How the values were obtained:
[1] = biological target: T1, delF508-CFTR (Homo sapiens, UniProt P13569, DEL508-508); test: delF508-CFTR functional activity in primary human bronchial epithelial cells (HBECs), Multi-Transepithelial Clamp Circuit (MTECC-24) assay, equivalent short circuit current; assay type: cell-based; details: primary CF HBECs; for MTECC24 CFHBEC-Amax %: relative to reference combination 2 μM 3-(6-(1-(2,2-difluorobenzo[d][1,3]dioxol-5-yl)cyclopropane-1-carboxamido)-3-methylpyridin-2-yl)benzoic acid (24 h) + 0.5 μM N-(2,4-di-tert-butyl-5-hydroxyphenyl)-4-oxo-1,4-dihydroquinoline-3-carboxamide; for EC50: test compound added 24 h before assay, potentiator (S)-3-amino-6-methoxy-N-(3,3,3-trifluoro-2-hydroxy-2-methylpropyl)-5-(trifluoromethyl)picolinamide present at assay, mean of at least two replicates, read-out: MTECC24 CFHBEC-EC50
T1 construct: functional activity of the CFTR channel (Chloride ion transport) in patient derived primary human bronchial epithelial cells; host or cells: patient-derived primary human bronchial epithelial cells (HBECs), delF508-CFTR
Excerpt: Measurement of delF508-CFTR Functional Activity in Primary Human Bronchial Epithelial Cells (HBECs) Using Multi-Transepithelial Clamp Circuit (MTECC-24) Assay
This assay measures the functional activity of the CFTR channel (Chloride ion transport) in patient derived primary human bronchial epithelial cells with forskolin activation and in the presence of the CFTR corrector wherein the corrector is a compound of the invention and the potentiator is (S)-3-amino-6-methoxy-N-(3,3,3-trifluoro-2-hydroxy-2-methylpropyl)-5-(trifluoromethyl)picolinamide.
Primary human delF508-CFTR bronchial epithelial cells were purchased from Asterand and cultured according to previously established methods (Fulcher et al. (2005) Methods Mol Med 107: 183-206). Briefly, vendor supplied cells were rapidly defrosted and added to a T175 flask in 50 mL growth media (Lonza BEBM media with Lonza BEGM singlequots). Media was replaced after 24 h and then cells were fed every other day until cells were 80-90% confluent, at which point cells were cryopreserved. These P1 vials were thawed at 37° C. as needed and added to T175 flasks in 50 mL growth media at 5×10^5 cells/flask. Media was replaced after 24 h, and then cells were fed every other day until 80-90% confluent. Cells were lifted with 5 mL Accutase at 37° C. for 5 minutes, centrifuged at 1000 rpms for 5 min (300 g), and resuspended in differentiation media (50% BEBM in DMEM, BEGM singlequots, all trans retinoic acid (5×10·8M)). Cells were then counted and cell suspension was added to collagen coated inserts at 3×10^4 cells/insert in 0.15 mL with 0.5 mL differentiation media on the basolateral side.
Apical and basolateral media were replaced on alternate days, and following day 7 (or when confluent plus 2 days), air liquid interface was established for approximately two weeks by removal of apical media. One day prior to use on the MTECC24 system (EP-Devices, EP Design, Belgium), 0.15 mL of warmed (37° C.) PBS was added to the apical surface of the cultures and returned to humidifier (37° C., 5% CO2 incubator) for 30 min before aspirating the apical surface to remove any mucus.
Compound treatments were then prepared. Compound dilutions, typically a 10 point concentration response with 1 in 3 dilution steps, were made in 100% DMSO before dilution 1 in 1000 into differentiation medium with a final DMSO concentration of 0.1% or 0.2% for the study. Compound containing medium was then transferred into the wells of a 24 well plate at 0.5 mL per well and warmed for 30 min in a 37° C. incubator prior to transferring washed inserts into the compound containing plates. Cells were incubated in compound containing medium (basolateral only) for 24 h prior to measurement in the MTECC24 system.
Following 24 hr treatment, compound dilutions were prepared again, diluted 1 in 1000 into 37° C. assay medium (F-12 Coon's modified, 20 mM HEPES pH7.4 with TRIS Base, No FCS or bicarbonate). Cells which were treated for 24 h with test compound were then transferred into plates containing 0.75 mL compound treatment in assay medium (basolateral) and 0.25 mL of the compound containing assay medium was added to the apical surface. The plates were then transferred to the heated plate compartments of the MTECC24 system for 45 min prior to measurements (this can also be done in a non-CO2 37° C. humidified incubator). Basolateral temperature should not exceed 36.5° C. and apical temperature should be approximately 35.5° C.
Modulators were added sequentially as follows while the MTECC24 instrument recorded the equivalent short circuit current (Ieq)
Prior to dilution into F-12 medium the stocks are as follows: Amiloride stock is 10 mM in H2O
Forskolin Stock is 10 mM in 100% DMSO
(S)-3-amino-6-methoxy-N-(3,3,3-trifluoro-2-hydroxy-2-methylpropyl)-5-(trifluoromethyl)picolinamide is 0.5 mM stock in 100% DMSO INH-172 (4-[[4-Oxo-2-thioxo-3-[3-trifluoromethyl)phenyl]-5-thiazolidinylidene]methyl]benzoic acid) stock is 30 mM in 100% DMSO […]

[2] = biological target: T2, delF508-CFTR-HRP (Homo sapiens, UniProt P13569, DEL508-508); test: Measurement of delF508-CFTR-HRP surface expression in CFBE41o- cells (HRP luminescence); assay type: cell-based; details: for Emax: CFBE41o-, read-out: DelF508-CFTR-HRP Amax %; for EC50: mean of at least two replicates;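 on DelF508-CFTR-HRP Amax %: percent efficacy relative to a reference CFTR corrector compound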
T2 construct: expressed in transfected cells
Outline: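 Stably transfected CFBE41o- cells carrying HRP in the fourth extracellular loop of delF508-CFTR, induced with 500 ng/mL doxycycline for 48 h, then compound-treated 24 h at 37° C (10-point, 3-fold, top 10 μM). Surface HRP detected by luminescent substrate; EC50 from logistic fit, triplicates, normalized to lowest-concentration median.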

T1 sequence (P13569 with tags, fused parts or gaps DEL508-508): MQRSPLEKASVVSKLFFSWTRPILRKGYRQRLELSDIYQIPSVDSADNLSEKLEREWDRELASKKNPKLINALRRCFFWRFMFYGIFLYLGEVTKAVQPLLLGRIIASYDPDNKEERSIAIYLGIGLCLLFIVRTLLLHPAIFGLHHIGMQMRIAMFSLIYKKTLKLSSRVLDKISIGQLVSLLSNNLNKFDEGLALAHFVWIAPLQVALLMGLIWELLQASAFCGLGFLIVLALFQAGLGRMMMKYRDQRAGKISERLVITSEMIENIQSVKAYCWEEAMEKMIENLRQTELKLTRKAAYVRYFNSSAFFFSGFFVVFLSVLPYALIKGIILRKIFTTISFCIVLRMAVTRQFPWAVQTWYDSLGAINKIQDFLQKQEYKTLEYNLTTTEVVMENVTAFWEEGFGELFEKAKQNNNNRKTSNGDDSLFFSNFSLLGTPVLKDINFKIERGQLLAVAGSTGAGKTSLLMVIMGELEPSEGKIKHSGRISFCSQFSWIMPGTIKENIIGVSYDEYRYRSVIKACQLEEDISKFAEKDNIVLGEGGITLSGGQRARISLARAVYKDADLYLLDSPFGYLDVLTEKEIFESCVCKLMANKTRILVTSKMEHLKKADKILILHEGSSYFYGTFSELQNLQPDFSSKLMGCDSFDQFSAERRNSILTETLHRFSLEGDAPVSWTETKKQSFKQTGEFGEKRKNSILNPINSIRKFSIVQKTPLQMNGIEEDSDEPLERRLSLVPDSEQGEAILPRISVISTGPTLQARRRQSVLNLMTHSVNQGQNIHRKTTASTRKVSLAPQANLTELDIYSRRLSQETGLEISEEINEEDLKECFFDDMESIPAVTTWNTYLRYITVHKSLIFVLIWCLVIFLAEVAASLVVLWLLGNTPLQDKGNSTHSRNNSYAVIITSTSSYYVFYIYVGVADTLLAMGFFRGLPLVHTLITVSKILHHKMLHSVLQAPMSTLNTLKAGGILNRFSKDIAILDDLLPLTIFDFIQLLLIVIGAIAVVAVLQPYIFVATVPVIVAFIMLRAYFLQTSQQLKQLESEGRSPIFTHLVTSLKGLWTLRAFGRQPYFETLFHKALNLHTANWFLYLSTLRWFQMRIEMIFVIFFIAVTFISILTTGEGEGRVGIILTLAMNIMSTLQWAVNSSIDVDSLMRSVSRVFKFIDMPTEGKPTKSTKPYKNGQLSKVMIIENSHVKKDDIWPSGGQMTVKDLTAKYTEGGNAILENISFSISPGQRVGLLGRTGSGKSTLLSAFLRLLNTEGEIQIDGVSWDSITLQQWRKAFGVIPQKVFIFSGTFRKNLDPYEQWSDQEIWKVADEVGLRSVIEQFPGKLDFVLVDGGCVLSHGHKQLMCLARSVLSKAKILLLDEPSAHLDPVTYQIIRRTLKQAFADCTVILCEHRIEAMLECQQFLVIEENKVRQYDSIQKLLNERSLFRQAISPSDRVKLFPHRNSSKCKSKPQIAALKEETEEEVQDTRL
T2 sequence (P13569 with tags, fused parts or gaps DEL508-508): as above

## CC1(C)CCN(c2ccc(Cl)cc2OC2(C(=O)NS(=O)(=O)c3cccc(N4CCC(O)(c5cccc(C(F)(F)F)c5)CC4)n3)CC2)CC1 [Example 10-2, 1-(5-chloro-2-(4,4-dimethylpiperidin-1-yl)phenoxy)-N-((6-(4-hydroxy-4-(3-(trifluoromethyl)phenyl)piperidin-1-yl)pyridin-2-yl)sulfonyl)cyclopropanecarboxamide]
[1]
  MTECC24 CFHBEC-Amax %: 161.6%
  EC50: 182 nM
[2]
  Emax: 746%
  EC50: 460 nM

## Cc1ccc(C2CCCCC2)c(OC2(C(=O)NS(=O)(=O)c3cccc(N4CCNCC4)n3)CC2)c1 [Example 2-31, 1-(2-Cyclohexyl-5-methylphenoxy)-N-((6-(piperazin-1-yl)pyridin-2-yl)sulfonyl)cyclopropanecarboxamide]
[1]
  MTECC24 CFHBEC-Amax %: 89%
  EC50: 421 nM
[2]
  Emax: 96%
  EC50: 3250 nM

## O=C(NS(=O)(=O)c1cccc(N2CC[C@H](O)C2)n1)C1(Oc2cc(C(F)(F)F)ccc2-c2cccc(C(F)(F)F)c2)CC1 [Example 5-5, (S)-1-((3′,4-Bis(trifluoromethyl)-[1,1′-biphenyl]-2-yl)oxy)-N-((6-(3-hydroxypyrrolidin-1-yl)pyridin-2-yl)sulfonyl)cyclopropane-1-carboxamide]
[1]
  MTECC24 CFHBEC-Amax %: 94%
  EC50: 71 nM
[2]
  Emax: 242%
  EC50: 2050 nM

## Cc1ccc(C2CCC(F)(F)CC2)c(OC2(C(=O)NS(=O)(=O)c3cccc(N4CCC5(CC4)CC(=O)c4cc(F)ccc4N5)n3)CC2)c1 [Example 3-1, 1-(2-(4,4-Difluorocyclohexyl)-5-methylphenoxy)-N-((6-(6′-fluoro-4′-oxo-3′,4′-dihydro-1′H-spiro[piperidine-4,2′-quinolin]-1-yl)pyridin-2-yl)sulfonyl)cyclopropanecarboxamide]
[1]
  MTECC24 CFHBEC-Amax %: 34%
  EC50: 28 nM
[2]
  Emax: 184%
  EC50: 3070 nM

## CC(C)CCOc1ccc(Cl)cc1OC1(C(=O)NS(=O)(=O)c2cccc(N3CC[C@H](O)C3)n2)CC1 [Example 6-12, (S)-1-(5-chloro-2-(isopentyloxy)phenoxy)-N-((6-(3-hydroxypyrrolidin-1-yl)pyridin-2-yl)sulfonyl)cyclopropanecarboxamide]
[1]
  MTECC24 CFHBEC-Amax %: 111.4%
  EC50: 852 nM
[2]
  Emax: 297%
  EC50: 2710 nM

## CC1(C)CCN(c2ccc(Cl)cc2OC2(C(=O)NS(=O)(=O)c3cccc(N4CCC(C)(O)CC4)n3)CC2)CC1 [Example 9-42, 1-(5-Chloro-2-(4,4-dimethylpiperidin-1-yl)phenoxy)-N-((6-(4-hydroxy-4-methylpiperidin-1-yl)pyridin-2-yl)sulfonyl)cyclopropane-1-carboxamide]
[1]
  MTECC24 CFHBEC-Amax %: 93.9%
  EC50: 138 nM
[2]
  Emax: 588%
  EC50: 1350 nM

## O=C(NS(=O)(=O)c1cccc(N2CC[C@H](O)C2)n1)C1(Oc2cc(Cl)ccc2N2CC3(CCCCC3)C2)CC1 [Example 9-1, (S)-1-(5-chloro-2-(2-azaspiro[3.5]nonan-2-yl)phenoxy)-N-((6-(3-hydroxypyrrolidin-1-yl)pyridin-2-yl)sulfonyl)cyclopropanecarboxamide]
[1]
  MTECC24 CFHBEC-Amax %: 206.5%
  EC50: 294 nM
[2]
  Emax: 647%
  EC50: 1060 nM

## O=C(NS(=O)(=O)c1cccc(N2CC[C@H](O)C2)n1)C1(Oc2cc(Cl)ccc2N2CC3(CCC3)C2)CC1 [Example 9-20, (S)-1-(5-Chloro-2-(2-azaspiro[3.3]heptan-2-yl)phenoxy)-N-((6-(3-hydroxypyrrolidin-1-yl)pyridin-2-yl)sulfonyl)cyclopropanecarboxamide]
[1]
  MTECC24 CFHBEC-Amax %: 98.5%
  EC50: 832 nM
[2]
  Emax: 729%
  EC50: 2910 nM

## Cc1ccc(S(=O)(=O)N2CC3(CCN3c3cccc(S(=O)(=O)NC(=O)C4(Oc5cc(C)ccc5C5CCCCC5)CC4)n3)C2)cc1 [Example 2-56, 1-(2-Cyclohexyl-5-methylphenoxy)-N-((6-(6-tosyl-1,6-diazaspiro[3.3]heptan-1-yl)pyridin-2-yl)sulfonyl)cyclopropane-1-carboxamide]
[1]
  MTECC24 CFHBEC-Amax %: 83%
  EC50: 40 nM
[2]
  Emax: 381%
  EC50: 2510 nM

## O=C(NS(=O)(=O)c1cccc(N2CC[C@H](O)C2)n1)C1(Oc2cc(Cl)ccc2N2CC3CCC(C3)C2)CC1 [Example 9-18, 1-(2-(3-Azabicyclo[3.2.1]octan-3-yl)-5-chlorophenoxy)-N-((6-((S)-3-hydroxypyrrolidin-1-yl)pyridin-2-yl)sulfonyl)cyclopropanecarboxamide]
[1]
  MTECC24 CFHBEC-Amax %: 148.1%
  EC50: 548 nM
[2]
  Emax: 510%
  EC50: 1300 nM

## CC1(C)CCN(c2ccc(Cl)cc2OC2(C(=O)NS(=O)(=O)c3cccc(N4CCC(O)(C(C)(C)C)CC4)n3)CC2)CC1 [Example 10-6, N-((6-(4-(tert-butyl)-4-hydroxypiperidin-1-yl)pyridin-2-yl)sulfonyl)-1-(5-chloro-2-(4,4-dimethylpiperidin-1-yl)phenoxy)cyclopropanecarboxamide]
[1]
  MTECC24 CFHBEC-Amax %: 103.9%
  EC50: 80 nM
[2]
  Emax: 462%
  EC50: 750 nM

## Cc1ccc(C2CCCCC2)c(OC2(C(=O)NS(=O)(=O)c3cccc(N4CC5(CCN5C(=O)OC(C)(C)C)C4)n3)CC2)c1 [Example 2-30, Tert-butyl 6-(6-(N-(1-(2-cyclohexyl-5-methylphenoxy)cyclopropanecarbonyl)sulfamoyl)pyridin-2-yl)-1,6-diazaspiro[3.3]heptane-1-carboxylate]
[1]
  MTECC24 CFHBEC-Amax %: 69%
  EC50: 23 nM
[2]
  Emax: 243%
  EC50: 1790 nM

## O=C(NS(=O)(=O)c1cccc(N2CC(O)C2)n1)C1(Oc2cc(Cl)ccc2C2CC3(CCC3)C2)CC1 [Example 7-9, 1-(5-Chloro-2-(spiro[3.3]heptan-2-yl)phenoxy)-N-((6-(3-hydroxyazetidin-1-yl)pyridin-2-yl)sulfonyl)cyclopropane-1-carboxamide]
[1]
  MTECC24 CFHBEC-Amax %: 120.3%
  EC50: 345 nM
[2]
  Emax: 300%
  EC50: 2050 nM

## Cc1ccc(C2CCCCC2)c(OC2(C(=O)NS(=O)(=O)c3cccc(N4C[C@@H]5C[C@@H]5[C@H](N)C4)n3)CC2)c1 (relative stereo) [Example 2-44, N-((6-(5-cis-amino-3-azabicyclo[4.1.0]heptan-3-yl)pyridin-2-yl)sulfonyl)-1-(2-cyclohexyl-5-methylphenoxy)cyclopropane-1-carboxamide]
[1]
  MTECC24 CFHBEC-Amax %: 66%
  EC50: 256 nM
[2]
  Emax: 120%
  EC50: 3980 nM

— US20220033407A1, “N-(pyridin-2-ylsulfonyl)cyclopropanecarboxamide Derivatives and their Use in the Treatment of Disease” (NOVARTIS AG, priority 2018, published 2022)
